Patent publication US20260167656A1, “PHOSPHORAMIDATE COMPOUNDS AND USES THEREOF” (ALLORION THERAPEUTICS INC, priority 2022, published 2026)

Key:
[1] = system: non-small cell lung cancer cell line H460; assay: In vitro human cancer cell line cytotoxicity (proliferation) assay in H460, CellTiter-Glo, 72 hours; assay type: cell-based; conditions: H460 cells, DMSO condition (no AKR1C3 inhibitor), read-out: CTG H460: Avg IC50 (nM) [Assay Condition: DMSO]
Protocol: Biological Example 1. In Vitro Human Cancer Cell Line Cytotoxicity Assay
IC50 values in nanomolar reported here were derived from in vitro proliferation assay data in non-small cell lung cancer cell line H460.
(§1) Specifically, exponentially growing cells were seeded at density of 3×10^3 cells per well in 96-well plate and incubated at 37° C. in 5% CO2, 95% air and 100% relative humidity for 24 hours before adding compounds. Compounds were solubilized in 100% DMSO at 10 mM. Compounds were added to the plate using Tecan D300e® digital Dispenser. After drug addition, the plates were incubated for an additional 72 hours at 37° C. in 5% CO2, 95% air and 100% relative humidity. At the end of the incubation, cell viability was quantified with CellTiter-Glo® assay.

[2] = system: non-small cell lung cancer cell line H460; assay: H460 proliferation assay in the presence of 3 uM ASP9521 (AKR1C3 specific inhibitor); assay type: cell-based, human; conditions: H460 cells, CellTiter-Glo, 72 hours, in the presence of 3 uM ASP9521 added 4 hours prior to compounds; read-out: CTG H460: Avg IC50 (nM) [Assay Condition: ASP9521]
Protocol: as §1
To further confirm that compounds were activated by human AKR1C3, H460 proliferation assay were also performed in the presence of 3 uM […], an AKR1C3 specific inhibitor. ASP9521 were added to the plates 4 hours prior to the addition of compounds.

Structure (SMILES)	IC50 [1] [nM]	IC50 [2] [nM]	IC50 ([1]; Homo sapiens, NCI-H460, 72 h) [nM]
Cc1noc(-c2cccc(Oc3c([N+](=O)[O-])ccc4c3CCC4OP(=O)(N3CC3)N3CC3)c2)n1 (stereo not shown) [Example 120]	< 10	2080	–
C[C@@H](OP(=O)(N1CC1)N1CC1)c1cc2cc(Oc3cccc(OC(F)(F)F)c3)c([N+](=O)[O-])cc2o1 (single isomer, unassigned) [Example 531]	–	1430	< 10
CN(C)C(=O)c1cc(Oc2c([N+](=O)[O-])ccc3c2CCC3OP(=O)(N2CC2)N2CC2)ccn1 (racemic) [Example 253]	< 10	697	–
O=[N+]([O-])c1ccc2c(c1Oc1cccc(OC(F)(F)F)c1)CCC2OP(=O)(N1CC1)N1CC1 (stereo not shown) [Example 124]	–	547	< 10
CC(OP(=O)(N1CC1)N1CC1)c1ccc([N+](=O)[O-])c(COc2ccc(C(=O)N(C)C)cn2)c1 (stereo not shown) [Example 7]	–	3950	10 to 50
O=[N+]([O-])c1ccc2c(c1Oc1ccc(F)c(-c3ccccc3)c1)CC[C@H]2OP(=O)(N1CC1)N1CC1 [Example 313]	–	1260	< 10
CC(OP(=O)(N1C[C@@H]1C)N1C[C@@H]1C)c1ccc([N+](=O)[O-])c(Oc2cccc(C(=O)N(C)C)c2)c1 (stereo partly shown) [Example 211]	–	1270	< 10
O=C(c1cccc(Oc2c([N+](=O)[O-])ccc3c2CCC3OP(=O)(N2CC2)N2CC2)c1)N1CCC1 (stereo not shown) [Example 97]	–	497	< 10
O=[N+]([O-])c1cc2oc(COP(=O)(N3CC3)N3CC3)cc2cc1Oc1cccc(-c2ccccc2)c1 [Example 534]	–	1200	< 10
O=[N+]([O-])c1ccc2c(c1Oc1ccnc(C3CC3)c1)CCC2OP(=O)(N1CC1)N1CC1 (racemic) [Example 312]	< 10	312	–
O=C(c1cc(Oc2c([N+](=O)[O-])ccc3c2CCC3OP(=O)(N2CC2)N2CC2)ccc1F)N1CCC1 (racemic) [Example 256]	< 10	1240	–
CN1Cc2ccc(Oc3cc4c(cc3[N+](=O)[O-])OCCC4OP(=O)(N3CC3)N3CC3)cc2C1=O (stereo not shown) [Example 199, 6-((2-methyl-3-oxoisoindolin-5-yl)oxy)-7-nitrochroman-4-yl di(aziridin-1-yl)phosphinate]	–	416	< 10
O=[N+]([O-])c1ccc2c(c1Oc1ccc(F)c(Br)c1)CCC2OP(=O)(N1CC1)N1CC1 (stereo not shown) [Example 510]	< 10	535	–
O=[N+]([O-])c1ccc2c(c1Oc1ccc3c(c1)OC(F)(F)O3)CC[C@@H]2OP(=O)(N1CC1)N1CC1 [Example 385]	–	819	< 10
O=C(NC1CCC1)c1ccc(Oc2cc3c(cc2[N+](=O)[O-])CCC3OP(=O)(N2CC2)N2CC2)cc1 (stereo not shown) [Example 190]	–	984	< 10
CC1(C)CN(c2cccc(Oc3c([N+](=O)[O-])ccc4c3CCC4OP(=O)(N3CC3)N3CC3)c2)C(=O)O1 (stereo not shown) [Example 417]	< 10	712	–
O=[N+]([O-])c1ccc2c(c1Oc1cccc(S(=O)(=O)C3CC3)c1)CC[C@H]2OP(=O)(N1CC1)N1CC1 [Example 456]	< 10	940	–
CC(OP(=O)(N1CC1)N1CC1)c1cc2cc(Oc3ccc4c(c3)OC(F)(F)O4)c([N+](=O)[O-])cc2o1 (stereo not shown) [Example 546]	–	4690	< 10
C[C@@H]1CN1P(=O)(OC(c1ccc([N+](=O)[O-])c(Oc2cccc(C(=O)N(C)C)c2)c1)C(F)(F)F)N1C[C@H]1C (stereo partly shown) [Example 228]	10 to 50	> 10000	–
O=[N+]([O-])c1ccc2c(c1Oc1ccc(F)c(OC3CCOCC3)c1)CC[C@@H]2OP(=O)(N1CC1)N1CC1 [Example 495]	–	635	< 10
O=[N+]([O-])c1cc2c(cc1Oc1ccc(-c3ccccc3)cc1)C(OP(=O)(N1CC1)N1CC1)CC2 (single isomer, unassigned) [Example 153]	< 10	477	–
C[C@@H]1CN1P(=O)(OCc1c(F)c(F)c(OCc2ccc([N+](=O)[O-])c(Oc3cccc(C(=O)N(C)C)c3)c2)c(F)c1F)N1C[C@H]1C (stereo partly shown) [Example 13]	–	195	< 10
O=[N+]([O-])c1ccc2c(c1Oc1ccc(F)c(-n3ncnn3)c1)CC[C@@H]2OP(=O)(N1CC1)N1CC1 [Example 441]	–	158	< 10
